Test results: patent publication US7148227B2, “Fungicidal triazolopyrimidines, methods for producing the same, use thereof for combating harmful fungi and agents containing said substances” (BASF Aktiengesellschaft, priority 2002, dated 2006)

melting point [°C] | Structure (SMILES)
207 | N#Cc1ccc(-c2c(Cl)nc3ncnn3c2NC2CCCC2)cc1 [I-3]
161 | CSc1cc(F)c(-c2c(Cl)nc3ncnn3c2NCC(F)(F)F)cc1F [I-8]
